Test results as given in patent US9346809B2 (LEO PHARMA A/S, priority 2009, dated 2016).
pEC50: −log10 of the molar value.

Legend:
Format in all cases: biochemical
[1] = biological target: T1, JAK1 (aa 850-1154, catalytic domain, GST-tag) (Homo sapiens, UniProt P23458); assay: JAK kinase assay (HTRF, phosphorylation of TK substrate-biotin), JAK1; conditions: ATP at Km (7 μM); read-out: JAK1 kinase inhibitory activity (EC50 indicator)
T1 construct: JAK1 (aa 850-1154) and TYK2 (aa 871-1187) are expressed with an N-terminally fused GST-tag; GST (N); purchased Carna Biosciences, Inc; host or cells: baculovirus expression system
Method in brief: (§1)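 Per reaction, 5 ng JAK1, 0.1 ng JAK2, 0.3 ng JAK3 or 0.8 ng TYK2 (baculovirus-expressed catalytic domains) acted on 1 μM TK substrate-biotin at Km ATP for 20-30 min, RT. Phosphorylation measured by HTRF.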

[2] = biological target: T2, JAK2 (catalytic domain, His-tag) (Homo sapiens, UniProt O60674); assay: JAK kinase assay (HTRF, phosphorylation of TK substrate-biotin), JAK2; conditions: ATP at Km (4 μM); read-out: JAK2 kinase inhibitory activity (EC50 indicator)
T2 construct: All four purified enzymes contain only the catalytic domain; His (N); purchased Carna Biosciences, Inc; host or cells: baculovirus expression system
Method in brief: as §1

[3] = biological target: T3, JAK3 (catalytic domain, His-tag) (Homo sapiens, UniProt P52333); assay: JAK kinase assay (HTRF, phosphorylation of TK substrate-biotin), JAK3; conditions: ATP at Km (2 μM); read-out: JAK3 kinase inhibitory activity (EC50 indicator)
T3 construct: All four purified enzymes contain only the catalytic domain; His (N); purchased Carna Biosciences, Inc; host or cells: baculovirus expression system
Method in brief: as §1

[4] = biological target: T4, TYK2 (aa 871-1187, catalytic domain, GST-tag) (Homo sapiens, UniProt P29597); assay: JAK kinase assay (HTRF, phosphorylation of TK substrate-biotin), TYK2; conditions: ATP at Km (13 μM); read-out: TYK2 kinase inhibitory activity (EC50 indicator)
T4 construct: JAK1 (aa 850-1154) and TYK2 (aa 871-1187) are expressed with an N-terminally fused GST-tag; GST (N); purchased Carna Biosciences, Inc; host or cells: baculovirus expression system
T4 sequence (P29597 871-1187): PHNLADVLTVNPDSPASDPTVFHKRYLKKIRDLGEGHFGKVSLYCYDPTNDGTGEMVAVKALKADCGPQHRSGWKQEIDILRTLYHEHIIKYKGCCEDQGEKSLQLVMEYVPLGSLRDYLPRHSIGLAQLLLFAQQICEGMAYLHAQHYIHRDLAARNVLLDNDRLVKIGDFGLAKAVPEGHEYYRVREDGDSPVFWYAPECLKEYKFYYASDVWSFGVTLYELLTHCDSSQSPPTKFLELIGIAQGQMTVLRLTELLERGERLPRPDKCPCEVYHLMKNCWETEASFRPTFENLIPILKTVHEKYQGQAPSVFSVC
Method in brief: as §1

T3 sequence (P52333 822-1111 limits assumed): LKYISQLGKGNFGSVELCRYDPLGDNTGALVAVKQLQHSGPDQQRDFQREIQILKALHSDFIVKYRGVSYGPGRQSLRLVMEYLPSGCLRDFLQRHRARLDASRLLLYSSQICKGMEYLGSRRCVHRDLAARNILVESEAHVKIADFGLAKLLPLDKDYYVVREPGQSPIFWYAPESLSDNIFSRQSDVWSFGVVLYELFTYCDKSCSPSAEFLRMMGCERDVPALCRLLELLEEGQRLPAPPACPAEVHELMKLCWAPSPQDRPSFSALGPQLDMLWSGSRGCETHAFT
T1 sequence (P23458 850-1154): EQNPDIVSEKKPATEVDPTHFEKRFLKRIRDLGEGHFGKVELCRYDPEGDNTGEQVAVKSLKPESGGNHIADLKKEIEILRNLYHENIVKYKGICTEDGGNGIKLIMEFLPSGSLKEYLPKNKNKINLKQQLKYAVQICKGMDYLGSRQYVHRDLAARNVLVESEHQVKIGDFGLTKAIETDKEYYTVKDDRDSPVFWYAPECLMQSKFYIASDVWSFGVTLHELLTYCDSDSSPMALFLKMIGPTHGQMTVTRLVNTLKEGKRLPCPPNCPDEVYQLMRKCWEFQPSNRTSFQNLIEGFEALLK
T2 sequence (O60674 849-1124 limits assumed): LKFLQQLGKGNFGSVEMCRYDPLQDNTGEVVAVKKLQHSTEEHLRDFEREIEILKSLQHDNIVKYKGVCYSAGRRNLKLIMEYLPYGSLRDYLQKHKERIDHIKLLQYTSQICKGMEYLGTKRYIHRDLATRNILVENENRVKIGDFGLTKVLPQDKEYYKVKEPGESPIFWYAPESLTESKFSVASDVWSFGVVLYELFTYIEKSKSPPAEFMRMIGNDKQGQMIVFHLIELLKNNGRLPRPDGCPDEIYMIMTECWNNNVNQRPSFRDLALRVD

Compound	pEC50 [1]	pEC50 [2]	pEC50 [3]	pEC50 [4]
O=C(c1cccc2cccnc12)N1CCN(c2ncnc3[nH]ccc23)CC12CC2 [Example 164, [7-(7H-Pyrrolo[2,3-d]pyrimidin-4-yl)-4,7-diaza-spiro[2.5]oct-4-yl]-quinolin-8-yl-methanone]	6.30 to 7.00	> 7.00	6.30 to 7.00	< 6.30
O=C(Cc1c[nH]c2ccccc12)N1[C@@H]2CC[C@@H]1CN(c1ncnc3[nH]ccc13)C2 [Example 170, 2-(1H-Indol-3-yl)-1-[3-(7H-pyrrolo[2,3-d]pyrimidin-4-yl)-3,8-diaza-bicyclo[3.2.1]oct-8-yl]-ethanone]	6.30 to 7.00	6.30 to 7.00	6.30 to 7.00	< 6.30
O=C(Cc1ccncc1)N1[C@@H]2CC[C@@H]1CN(c1ncnc3[nH]ccc13)C2 [Example 171, 2-Pyridin-4-yl-1-[3-(7H-pyrrolo[2,3-d]pyrimidin-4-yl)-3,8-diaza-bicyclo[3.2.1]oct-8-yl]-ethanone]	6.30 to 7.00	6.30 to 7.00	< 6.30	< 6.30
O=C(Cc1cccnc1)N1[C@@H]2CC[C@@H]1CN(c1ncnc3[nH]ccc13)C2 [Example 172, 2-Pyridin-3-yl-1-[3-(7H-pyrrolo[2,3-d]pyrimidin-4-yl)-3,8-diaza-bicyclo[3.2.1]oct-8-yl]-ethanone]	< 6.30	6.30 to 7.00	< 6.30	< 6.30
CS(=O)(=O)NCCC(=O)N1[C@@H]2CC[C@@H]1CN(c1ncnc3[nH]ccc13)C2 [Example 176, N-{3-Oxo-3-[3-(7H-pyrrolo[2,3-d]pyrimidin-4-yl)-3,8-diaza-bicyclo[3.2.1]oct-8-yl]-propyl}-methanesulfonamide]	6.30 to 7.00	6.30 to 7.00	< 6.30	< 6.30
O=C(c1ncco1)N1[C@@H]2CC[C@@H]1CN(c1ncnc3[nH]ccc13)C2 [Example 177, Oxazol-2-yl-[3-(7H-pyrrolo[2,3-d]pyrimidin-4-yl)-3,8-diaza-bicyclo[3.2.1]oct-8-yl]-methanone]	6.30 to 7.00	6.30 to 7.00	6.30 to 7.00	< 6.30
O=C(c1cccc(-c2ccccc2)c1)N1[C@@H]2CC[C@@H]1CN(c1ncnc3[nH]ccc13)C2 [Example 178, Biphenyl-3-yl-[3-(7H-pyrrolo[2,3-d]pyrimidin-4-yl)-3,8-diaza-bicyclo[3.2.1]oct-8-yl]-methanone]	6.30 to 7.00	6.30 to 7.00	6.30 to 7.00	< 6.30
N#Cc1cccc(CC(=O)N2[C@@H]3CC[C@@H]2CN(c2ncnc4[nH]ccc24)C3)c1 [Example 179, 3-{2-Oxo-2-[3-(7H-pyrrolo[2,3-d]pyrimidin-4-yl)-3,8-diaza-bicyclo[3.2.1]oct-8-yl]-ethyl}-benzonitrile]	6.30 to 7.00	6.30 to 7.00	< 6.30	< 6.30
N#Cc1ccc(CC(=O)N2[C@@H]3CC[C@@H]2CN(c2ncnc4[nH]ccc24)C3)cc1 [Example 180, 4-{2-Oxo-2-[3-(7H-pyrrolo[2,3-d]pyrimidin-4-yl)-3,8-diaza-bicyclo[3.2.1]oct-8-yl]-ethyl}-benzonitrile]	6.30 to 7.00	6.30 to 7.00	6.30 to 7.00	< 6.30
Cc1c(C(=O)N2CCN(c3ncnc4[nH]ccc34)CC23CC3)[nH]c2ccc(F)cc12 [Example 185, (5-Fluoro-3-methyl-1H-indol-2-yl)-[7-(7H-pyrrolo[2,3-d]pyrimidin-4-yl)-4,7-diaza-spiro[2.5]oct-4-yl]-methanone]	6.30 to 7.00	6.30 to 7.00	< 6.30	< 6.30

The remaining lines, values ahead:

pEC50 [1]	pEC50 [2]	pEC50 [3]	pEC50 [4]	Compound
> 7.00	> 7.00	> 7.00	6.30 to 7.00	N#CC1(C(=O)N2CCN(c3ncnc4[nH]ccc34)CC23CC3)CC1 [Example 165, 1-[7-(7H-Pyrrolo[2,3-d]pyrimidin-4-yl)-4,7-diaza-spiro[2.5]octane-4-carbonyl]-cyclopropanecarbonitrile]
> 7.00	> 7.00	6.30 to 7.00	< 6.30	O=C(c1cccc(O)n1)N1CCN(c2ncnc3[nH]ccc23)CC12CC2 [Example 166, (6-Hydroxy-pyridin-2-yl)-[7-(7H-pyrrolo[2,3-d]pyrimidin-4-yl)-4,7-diaza-spiro[2.5]oct-4-yl]-methanone]
> 7.00	> 7.00	> 7.00	6.30 to 7.00	N#CCCC(=O)N1CCN(c2ncnc3[nH]ccc23)CC12CC2 [Example 167, 4-Oxo-4-[7-(7H-pyrrolo[2,3-d]pyrimidin-4-yl)-4,7-diaza-spiro[2.5]oct-4-yl]-butyronitrile]
> 7.00	> 7.00	6.30 to 7.00	< 6.30	O=C(CCc1ccccc1)N1[C@@H]2CC[C@@H]1CN(c1ncnc3[nH]ccc13)C2 [Example 168, 3-Phenyl-1-[3-(7H-pyrrolo[2,3-d]pyrimidin-4-yl)-3,8-diaza-bicyclo[3.2.1]oct-8-yl]-propan-1-one]
> 7.00	> 7.00	> 7.00	< 6.30	O=C(c1cc2ccccc2s1)N1[C@@H]2CC[C@@H]1CN(c1ncnc3[nH]ccc13)C2 [Example 169, Benzo[b]thiophen-2-yl-[3-(7H-pyrrolo[2,3-d]pyrimidin-4-yl)-3,8-diaza-bicyclo[3.2.1]oct-8-yl]-methanone]
> 7.00	> 7.00	> 7.00	6.30 to 7.00	N#Cc1cccc(C(=O)N2[C@@H]3CC[C@@H]2CN(c2ncnc4[nH]ccc24)C3)c1 [Example 173, 3-[3-(7H-Pyrrolo[2,3-d]pyrimidin-4-yl)-3,8-diaza-bicyclo[3.2.1]octane-8-carbonyl]-benzonitrile]
> 7.00	> 7.00	6.30 to 7.00	< 6.30	N#CCc1ccc(C(=O)N2[C@@H]3CC[C@@H]2CN(c2ncnc4[nH]ccc24)C3)cc1 [Example 175, {4-[3-(7H-Pyrrolo[2,3-d]pyrimidin-4-yl)-3,8-diaza-bicyclo[3.2.1]octane-8-carbonyl]-phenyl}-acetonitrile]
> 7.00	> 7.00	6.30 to 7.00	6.30 to 7.00	O=C(CCC(F)(F)F)N1[C@@H]2CC[C@H]1CN(c1ncnc3[nH]ccc13)C2 [Example 181, 4,4,4-Trifluoro-1-[3-(7H-pyrrolo[2,3-d]pyrimidin-4-yl)-3,8-diaza-bicyclo[3.2.1]oct-8-yl]-butan-1-one]
> 7.00	> 7.00	6.30 to 7.00	6.30 to 7.00	N#CCCC(=O)N1[C@@H]2CC[C@@H]1CN(c1ncnc3[nH]ccc13)C2 [Example 182, 4-Oxo-4-[3-(7H-pyrrolo[2,3-d]pyrimidin-4-yl)-3,8-diaza-bicyclo[3.2.1]oct-8-yl]-butyronitrile]
> 7.00	> 7.00	> 7.00	> 7.00	CS(=O)(=O)c1ccc(C(=O)N2CCN(c3ncnc4[nH]ccc34)CC23CC3)c(F)c1 [Example 183, (2-Fluoro-4-methanesulfonyl-phenyl)-[7-(7H-pyrrolo[2,3-d]pyrimidin-4-yl)-4,7-diaza-spiro[2.5]oct-4-yl]-methanone]
> 7.00	> 7.00	> 7.00	6.30 to 7.00	Cc1ccc2[nH]c(C(=O)N3CCN(c4ncnc5[nH]ccc45)CC34CC4)cc2c1 [Example 184, (5-Methyl-1H-indol-2-yl)-[7-(7H-pyrrolo[2,3-d]pyrimidin-4-yl)-4,7-diaza-spiro[2.5]oct-4-yl]-methanone]
> 7.00	> 7.00	> 7.00	> 7.00	NS(=O)(=O)c1ccc2[nH]c(C(=O)N3CCN(c4ncnc5[nH]ccc45)CC34CC4)cc2c1 [Example 186, 2-[7-(7H-Pyrrolo[2,3-d]pyrimidin-4-yl)-4,7-diaza-spiro[2.5]octane-4-carbonyl]-1H-indole-5-sulfonic acid amide]
> 7.00	> 7.00	> 7.00	> 7.00	Cn1c(C(=O)N2CCN(c3ncnc4[nH]ccc34)CC23CC3)ccc1S(N)(=O)=O [Example 187, 1-Methyl-5-[7-(7H-pyrrolo[2,3-d]pyrimidin-4-yl)-4,7-diaza-spiro[2.5]octane-4-carbonyl]-1H-pyrrole-2-sulfonic acid amide]
